Measurements taken from patent publication US20030229105A1, “Treatment of autoimmune disorders” (Cyclacel Limited, priority 2002, published 2003).

Tests used:
[1] = test system: HIV-1; experiment: p24 antigen ELISA of supernatants from induced HIV-1 latently infected cells (ACH2, 8E5, U1); type: cell-based; conditions: for inhibition of HIV-1 replication, prolonged treatment: U1 and 8E5 cells, up to 21 days, 5 or 10 μM (data not shown); for postintegrative HIV-1 progeny formation: low concentrations (data not shown)
Method: We chose HIV-1 stably integrated cells, lymphocytic ACH2 and 8E5 cell lines, as well as monocytic U1 cells (and their uninfected parental counterparts CEM and U937, respectively) for our initial studies, since viral transcription could be activated and scored through signals, such as Tat, TNF-α or phorbol myristate acetate (PMA) and PHA. We first activated viruses in these cells with TNF-α (10 ng/ml) at 37° C. for 2 h, followed by washing, and then we incubated cells with 10 μM concentrations of each drug. […] We next examined the effect of all three drugs on primary HIV-1 field isolates of SI and NSI strains. Activated PBMC were infected with two independent HIV-1 viral strains of SI (UG/92/029, subtype A envelope) and NSI (THA/92/001, subtype E envelope).
Five days later, the supernatants were collected, and the amount of newly synthesized HIV-1 was measured by p24 antigen assay. (B) Purified Tat (300 μg) was electroporated into ACH2, 8E5, and U1 cells and subsequently treated with various drugs for 5 days. […] Seven days later samples were collected and used for p19 gag ELISA. (E) PHA-activated PBMC (5×10^6) were infected with HIV-1 either SI (UG/92/029 Uganda strain, subtype A envelope) or NSI (THA/92/001, Thailand strain, subtype E envelope) strains. Unadsorbed viruses were washed after 6 h, and cells were cultured in fresh media with various cdk inhibitors (10 μM). Samples were collected every sixth day and used for p24 gag ELISA assay.
At days 2, 4, and 6, the supernatants were collected, and the released HIV-1 particles were measured by using a p24 antigen ELISA assay. (B) Twenty micrograms of total RNA was separated on an RNA-formaldehyde-agarose gel, transferred, and probed with full-length labeled HIV-1 genome RNA. The hybridized genomic RNA, singly spliced (structural), and doubly spliced (regulatory) RNAs were exposed and counted by using Molecular Dynamic PhosphorImager software.
Supernatants from the infected PBMC were collected and used directly for the p24 antigen assay. The p24 gag antigen level was analyzed by using the HIVAG-1 Monoclonal Antibody Kit (Abbott Laboratories, Diagnostics Division). The HTLV-1 p19 core antigen ELISA kit was from Retro-Tek (Cellular Products).

[2] = test system: CEM cells; experiment: Cell proliferation, [3H]thymidine incorporation; type: cell-based; conditions: ca. 10 μM
Description: We next sought to determine whether the inhibition of HIV-1 transcription, observed above, could be mediated specifically by cdk inhibitors or by general cell cycle inhibitors. To distinguish between the two possibilities, we performed transfection experiments with all three cdk inhibitors tested above and two other well-established cell cycle inhibitors, namely, hydroxyurea and nocodazole. Hydroxyurea blocks DNA replication by inhibiting ribonucleotide reductase and thus arrests cell cycle progression at the G1/S checkpoint, while nocodazole blocks at G2/M by promoting tubulin depolymerization. […] Therefore, the basal transcription of HIV-1 was inhibited by purine analogs and not general cell cycle inhibitors.
FIG. 3 discloses inhibition of HIV-1 basal and activated transcription by cdk inhibitors. […] The graphs at the bottom of the figure represent the effect of various concentrations of general cell cycle inhibitors (hydroxyurea and nocodazole) on CEM cells. (B) Inhibition of activated transcription in CEM cells was examined using transfected HIV-1 LTR-CAT, together with pcTat plasmid. […]
Cells (CEM) were initially treated with various concentrations of hydroxyurea or nocodazole and evaluated after 0, 12, 24, 48, 60, and 72 h. […] The amount of radioactivity incorporated into the DNA was measured in a liquid scintillation counter (Packard) and expressed as the counts per minute (cpm). […]

[3] = test system: uninfected T and monocytic cells; experiment: Initial test of cdk inhibitors on uninfected cells (data not shown)

| Structure (SMILES) | inhibition of HIV-1 replication, prolonged treatment [1] | postintegrative HIV-1 progeny formation [1] | inhibition of DNA synthesis [2] | toxicity in uninfected cells [3] |
| --- | --- | --- | --- | --- |
| NC(=O)NO [hydroxyurea, reference compound] | neither hydroxyurea nor nocodazole was able to inhibit HIV-1 replication | remained essentially the same | no inhibition of DNA synthesis was observed |  |
| COC(=O)Nc1nc2ccc(C(=O)c3cccs3)cc2[nH]1 [nocodazole, reference compound] | neither hydroxyurea nor nocodazole was able to inhibit HIV-1 replication | slightly higher | no inhibition of DNA synthesis was observed |  |
| Cn1cnc2c(NCc3ccccc3)nc(NCCO)nc21 [Olomoucine] |  |  |  | lack of toxicity |
